According to patent US10632127B2, “Targeted notch pathway inhibitors” (Hoffmann-La Roche Inc., priority 2015, dated 2020):

Test system: γ-GT
Experiment: Histoenzymography of γ-GT activity in ex-vivo mouse kidneys
Type: biochemical
Settings: ex-vivo kidneys of non-diseased BALB/c mice
Protocol: FIG. 2B. Selective inhibition of the enzymatic activities of APA and yGT by the γ-secretase analogues determined by histoenzymography in the kidneys of non diseased BALB/c mice.
Evaluation by histoenzymography of APA and γ-GT enzymatic activities on frozen tissue was performed as described in Juillerat-Jeanneret, L. et al., Lab. Invest. 2000, 80, 973-980. Briefly, OCT-embedded frozen kidneys were cut in 7 μm sections in a cryostat, fixed for 5 min in cold (−20° C.) acetone, air dried at RT and rehydrated for 5 min in 0.9% NaCl. Naphthylamide substrates were obtained from commercial sources (α-Glu-4-methoxy-β-naphtylamide (APA) from Bachem; and γ-Glu-4-methoxy-β-naphtylamide (γ-GT) from Serva). Substrates (1 mg) were dissolved in 1 ml DMF and 2 mg Fast Blue B (Sigma-Aldrich) was dissolved in 2 ml 0.2M cacodylate buffer pH 7.4 containing 700 mg/l CaCl2; then both solutions were slowly mixed immediately before use and the pH adjusted to 6.5-7.0. […] The slides were washed in distilled water, counter-stained with hematoxylin (Mayer) for 1 min, rinsed under tap water, then with Scott solution for 1 min, rinsed under tap water, mounted in Aquamount (Immu-mount, Thermo Shandon Pittsburgh, Pa., USA) and analyzed with a Nikon Eclipse E800 microscope and digital DXM1200 camera using ACT-1 software. […]

CC(=O)N[C@@H](CCC(=O)NCCNC(=O)OCCN1C(=O)[C@@H](NC(=O)[C@@](C)(O)C(=O)NCC(F)(F)C(F)(F)F)[C@@H](C)Oc2ccc(F)cc21)C(=O)O [Compound 13a, (S)-2-acetamido-5-(2-((2-((2R,3S)-7-fluoro-3-((S)-2-hydroxy-2-methyl-3-oxo-3-(2,2,3,3,3-pentafluoropropylamino)propanamido)-2-methyl-4-oxo-3,4-dihydrobenzo[b][1,4]oxazepin-5(2H)-yl)ethoxy)carbonylamino)ethylamino)-5-oxopentanoic acid]
inhibition of γ-GT-like activity (hydrolysis of γ-Glu-naphthylamide): able to inhibit γ-GT-like activity
